Assay [1] deals with Corn Earworm (Helicoverpa zea). Briefly: Insecticidal diet-surface test for corn earworm. The format is in vivo. Particulars: 120 h, second-instar larvae on treated diet, 50 μg/cm^2 on diet surface, 5 days after treatment, 8 insects per treatment, read-out: HELIZE AVG % Mortality (50 μg/cm^2). The gist of the method:
(§1)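 Second-instar larvae placed on lepidopteran diet surface-treated with 50 μL of 2000 ppm compound in 9 acetone:1 water (stated as 50 μg/cm^2), eight wells per species. Held 5 days at 25° C, 50-55% RH, 16:8 h light:dark; mortality of 8 larvae scored as percent control.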

The test system of assay [2] is Beet Armyworm (Spodoptera exigua). Briefly: Insecticidal diet-surface test for beet armyworm. Type of assay: in vivo. Particulars: 120 h, second-instar larvae on treated diet, 50 μg/cm^2 on diet surface, 5 days after treatment, 8 insects per treatment, read-out: LAPHEG AVG % Mortality (50 μg/cm^2). The essentials:
as §1

Regarding `O=C(Nc1ccc(C(F)(F)F)cc1)Nc1nc(OCC(F)(F)F)cc(C(F)(F)F)n1` [Compound 102, N-(4-trifluoromethylphenyl)-N′-[4-trifluoromethyl-6-(2,2,2-trifluoroethoxy)pyrimidin-2-yl]urea], the results for the mortality at 50 µg/cm2 in assay [1] and in assay [2] were 100% and 0%, respectively.

In the case of `CN(C(=O)Nc1nc(OCC(F)(F)F)cc(OCC(F)(F)F)n1)c1ccc(C(F)(F)F)c(F)c1` [Compound 154], the mortality at 50 µg/cm2 in assay [1] and in assay [2] was 100% in each case.

`FC(F)(F)COc1cc(OCC(F)(F)F)nc(NC(=S)Nc2ccc(C(F)(F)F)cc2)n1` [Compound 130]: the mortality at 50 µg/cm2 in assay [1] and in assay [2] was 100% in each case.

Take `O=C(Nc1ccc(C(F)(F)F)cc1)N(COCc1ccccc1)c1nc(OCC(F)(F)F)cc(OCC(F)(F)F)n1` [Compound 19, N-Benzyloxymethyl-N-[4,6-bis-(2,2,2-trifluoroethoxy)pyrimidin-2-yl]-N′-[(4-trifluoromethyl)phenyl]urea]: the mortality at 50 µg/cm2 in assay [1] and in assay [2] was 100% throughout.

Consider `CN(C(=O)Nc1nc(OCC(F)(F)F)cc(OCC(F)(F)F)c1F)c1ccc(C(F)(F)F)cc1` [Compound 184], for which the mortality at 50 µg/cm2 in assay [1] and in assay [2] was 100% throughout.

As for `O=C(Nc1ccc(OC(F)(F)F)cc1)Nc1nc(OCC(F)(F)F)cc(OCC(F)(F)F)n1` [Compound 3, N-(4-trifluoromethoxyphenyl)-N′-[4,6-(2,2,2-trifluoroethoxy)pyrimidin-2-yl]urea], the mortality at 50 µg/cm2 in assay [1] and in assay [2] was 100% each time.

For `COCN(C(=O)N(COCc1ccccc1)c1nc(OCC(F)(F)F)cc(OCC(F)(F)F)n1)c1ccc(C(F)(F)F)nc1` [Compound 89], the mortality at 50 µg/cm2 in assay [1] and in assay [2] was 100% each time.

`O=C(Nc1ccc(OC(F)(F)F)cc1)Nc1nc(OCC(F)(F)C(F)(F)F)cc(OCC(F)(F)C(F)(F)F)n1` [Compound 104]: the results for the mortality at 50 µg/cm2 in assay [1] and in assay [2] were 100% and 0%, respectively.

Consider `O=C(Nc1nc(OCC(F)(F)F)cc(OCC(F)(F)F)n1)Nc1ccccc1OC(F)(F)F` [Compound 134], for which the mortality at 50 µg/cm2 in assay [1] and in assay [2] was 100% throughout.

Consider `O=C(Nc1ccc(C(F)(F)F)cc1)Nc1nc(OCC(F)(F)F)cc(SCC(F)(F)F)n1` [Compound 6], for which the mortality at 50 µg/cm2 came out at 63% in assay [1] and 0% in assay [2].

Regarding `O=C(Nc1ccc(Cl)cc1)Nc1nc(OCC(F)(F)F)cc(OCC(F)(F)F)n1` [Compound 20], the mortality at 50 µg/cm2 in assay [1] and in assay [2] was 100% each time.

Consider `O=C(Nc1ccc(I)cc1)Nc1nc(OCC(F)(F)F)cc(OCC(F)(F)F)n1` [Compound 54], for which the mortality at 50 µg/cm2 in assay [1] and in assay [2] was 100% each time.

In the case of `O=C(Nc1ccc(C(F)(F)F)nc1)N(COCc1ccccc1)c1nc(OCC(F)(F)F)cc(OCC(F)(F)F)n1` [Compound 87], the mortality at 50 µg/cm2 in assay [1] and in assay [2] was 100% throughout.

As for `CC(=O)OCN(C(=O)Nc1ccc(C(F)(F)F)cc1)c1nc(OCC(F)(F)F)cc(OCC(F)(F)F)n1` [Compound 13], the mortality at 50 µg/cm2 in assay [1] and in assay [2] was 100% in each case.

As for `CSc1ccc(NC(=O)Nc2nc(OCC(F)(F)F)cc(OCC(F)(F)F)n2)cc1` [Compound 57], the mortality at 50 µg/cm2 in assay [1] turned out to be 100%; in assay [2] it was 0%.

As for `CN(C(=O)Nc1nc(OCC(F)(F)F)cc(OCC(F)(F)F)n1)c1ccc(S(=O)(=O)C(F)(F)F)cc1` [Compound 94], the mortality at 50 µg/cm2 in assay [1] and in assay [2] was 100% in each case.

With `CN(C(=O)Nc1cc(OCC(F)(F)F)nc(OCC(F)(F)F)n1)c1ccc(Cl)nc1` [Compound 110], the results for the mortality at 50 µg/cm2 in assay [1] and in assay [2] were 0% and 100%, respectively.

In the case of `O=C(Nc1ccc(C(F)(F)F)cc1)Nc1nc(OCC(F)(F)C(F)(F)F)cc(OCC(F)(F)C(F)(F)F)n1` [Compound 174], the mortality at 50 µg/cm2 in assay [1] was 100%; in assay [2] it was 0%.
